Data published in PubChem BioAssay (NCI).
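GI50: concentration for 50% inhibition of growth. Definition used: TGI = concentration required for complete inhibition of growth.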

Key:
Test in all cases: NCI anticancer screen, dose series, 384-well format
IGROV1 ovarian = test system: IGROV1 ovarian
SF-268 CNS = test system: SF-268 CNS
CAKI-1 renal = test system: CAKI-1 renal
SW-620 colon = test system: SW-620 colon
MOLT-4 leukemia = test system: MOLT-4 leukemia
MDA-MB-435 melanoma = test system: MDA-MB-435 melanoma
NCI-H460 NSCLC = test system: NCI-H460 NSCLC
HL-60(TB) leukemia = test system: HL-60(TB) leukemia
786-0 renal = test system: 786-0 renal
NCI-H23 lung = test system: NCI-H23 lung
SK-MEL-28 melanoma = test system: SK-MEL-28 melanoma
KM12 colon = test system: KM12 colon
NCI-H226 lung = test system: NCI-H226 lung
T-47D breast = test system: T-47D breast
U251 glioblastoma = test system: U251 glioblastoma
SN12C renal = test system: SN12C renal
RXF 393 renal = test system: RXF 393 renal
UACC-257 melanoma = test system: UACC-257 melanoma
SK-MEL-5 melanoma = test system: SK-MEL-5 melanoma
SNB-19 CNS = test system: SNB-19 CNS
MCF7 breast = test system: MCF7 breast
CCRF-CEM leukemia = test system: CCRF-CEM leukemia
K-562 leukemia = test system: K-562 leukemia
RPMI-8226 leukemia = test system: RPMI-8226 leukemia
DU-145 prostate = test system: DU-145 prostate
EKVX NSCLC = test system: EKVX NSCLC
HCT-116 colon = test system: HCT-116 colon
A549 NSCLC = test system: A549 NSCLC
HOP-92 NSCLC = test system: HOP-92 NSCLC
SR leukemia = test system: SR leukemia
SK-OV-3 ovarian = test system: SK-OV-3 ovarian
OVCAR-5 ovarian = test system: OVCAR-5 ovarian
HT29 colon = test system: HT29 colon
OVCAR-3 ovarian = test system: OVCAR-3 ovarian
OVCAR-4 ovarian = test system: OVCAR-4 ovarian
NCI-H522 lung = test system: NCI-H522 lung
SK-MEL-2 melanoma = test system: SK-MEL-2 melanoma
HS 578T breast = test system: HS 578T breast
TK-10 renal = test system: TK-10 renal
MDA-MB-231 breast = test system: MDA-MB-231 breast
A498 renal = test system: A498 renal
PC-3 prostate = test system: PC-3 prostate
COLO 205 colon = test system: COLO 205 colon
OVCAR-8 ovarian = test system: OVCAR-8 ovarian
NCI-H322M lung = test system: NCI-H322M lung
ACHN renal = test system: ACHN renal
NCI/ADR-RES ovarian = test system: NCI/ADR-RES ovarian
HCC-2998 colon = test system: HCC-2998 colon
UO-31 renal = test system: UO-31 renal
MDA-MB-468 breast = test system: MDA-MB-468 breast
BT-549 breast = test system: BT-549 breast

Q: For CC[C@@H]1C(=O)N(C)c2cnc(Nc3ccc(C(=O)NC4CCN(C)CC4)cc3OC)nc2N1C1CCCC1, which GI50 (IGROV1 ovarian) is on record?
A: The GI50 was less than 10 nM.

Q: And the TGI (IGROV1 ovarian)?
A: Its TGI is 224 nM.

Q: And the GI50 (SF-268 CNS)?
A: Its GI50 is less than 10 nM.

Q: What about the TGI (SF-268 CNS) of the same compound?
A: Its TGI is 414 nM.

Q: What about the GI50 (CAKI-1 renal) of the same compound?
A: The GI50 was less than 10 nM.

Q: And the TGI (CAKI-1 renal)?
A: Its TGI is 1270 nM.

Q: What about the GI50 (SW-620 colon) of the same compound?
A: The GI50 was less than 10 nM.

Q: And the TGI (SW-620 colon)?
A: The TGI was less than 10 nM.

Q: And the GI50 (MOLT-4 leukemia)?
A: Its GI50 is less than 10 nM.

Q: What about the TGI (MOLT-4 leukemia) of the same compound?
A: The TGI was less than 10 nM.

Q: And the GI50 (MDA-MB-435 melanoma)?
A: Its GI50 is less than 10 nM.

Q: And the TGI (MDA-MB-435 melanoma)?
A: Its TGI is less than 10 nM.

Q: And the GI50 (NCI-H460 NSCLC)?
A: Its GI50 is less than 10 nM.

Q: What about the TGI (NCI-H460 NSCLC) of the same compound?
A: The TGI was less than 10 nM.

Q: What about the GI50 (HL-60(TB) leukemia) of the same compound?
A: Its GI50 is less than 10 nM.

Q: And the TGI (HL-60(TB) leukemia)?
A: The TGI was less than 10 nM.

Q: And the GI50 ([…]-0 renal)?
A: The GI50 was less than 10 nM.

Q: What about the TGI (786-0 renal) of the same compound?
A: The TGI was 149 nM.

Q: And the GI50 (NCI-H23 lung)?
A: Its GI50 is less than 10 nM.

Q: What about the TGI (NCI-H23 lung) of the same compound?
A: Its TGI is less than 10 nM.

Q: What about the GI50 (SK-MEL-28 melanoma) of the same compound?
A: The GI50 was less than 10 nM.

Q: And the TGI (SK-MEL-28 melanoma)?
A: The TGI was 1920 nM.

Q: And the GI50 (KM12 colon)?
A: The GI50 was less than 10 nM.

Q: And the TGI (KM12 colon)?
A: Its TGI is less than 10 nM.

Q: What about the GI50 (NCI-H226 lung) of the same compound?
A: Its GI50 is 224 nM.

Q: And the TGI (NCI-H226 lung)?
A: Its TGI is 1920 nM.

Q: And the GI50 (T-47D breast)?
A: The GI50 was less than 10 nM.

Q: And the TGI (T-47D breast)?
A: The TGI was 166 nM.

Q: And the GI50 (U251 glioblastoma)?
A: The GI50 was less than 10 nM.

Q: And the TGI (U251 glioblastoma)?
A: Its TGI is 85.6 nM.

Q: And the GI50 (SN12C renal)?
A: The GI50 was less than 10 nM.

Q: And the TGI (SN12C renal)?
A: Its TGI is 880 nM.

Q: What about the GI50 (RXF 393 renal) of the same compound?
A: Its GI50 is less than 10 nM.

Q: And the TGI (RXF 393 renal)?
A: The TGI was less than 10 nM.

Q: And the GI50 (UACC-257 melanoma)?
A: The GI50 was less than 10 nM.

Q: And the TGI (UACC-257 melanoma)?
A: Its TGI is 1700 nM.

Q: And the GI50 (SK-MEL-5 melanoma)?
A: Its GI50 is less than 10 nM.

Q: What about the TGI (SK-MEL-5 melanoma) of the same compound?
A: The TGI was less than 10 nM.

Q: And the GI50 (SNB-19 CNS)?
A: Its GI50 is less than 10 nM.

Q: What about the TGI (SNB-19 CNS) of the same compound?
A: The TGI was 269 nM.

Q: What about the GI50 (MCF7 breast) of the same compound?
A: The GI50 was less than 10 nM.

Q: What about the TGI (MCF7 breast) of the same compound?
A: Its TGI is 904 nM.

Q: And the GI50 (CCRF-CEM leukemia)?
A: Its GI50 is less than 10 nM.

Q: And the TGI (CCRF-CEM leukemia)?
A: The TGI was less than 10 nM.

Q: And the GI50 (K-562 leukemia)?
A: Its GI50 is less than 10 nM.

Q: And the TGI (K-562 leukemia)?
A: Its TGI is less than 10 nM.

Q: And the GI50 (RPMI-8226 leukemia)?
A: Its GI50 is less than 10 nM.

Q: And the TGI (RPMI-8226 leukemia)?
A: The TGI was less than 10 nM.

Q: What about the GI50 (DU-145 prostate) of the same compound?
A: Its GI50 is less than 10 nM.

Q: And the TGI (DU-145 prostate)?
A: The TGI was less than 10 nM.

Q: What about the GI50 (EKVX NSCLC) of the same compound?
A: Its GI50 is less than 10 nM.

Q: What about the TGI (EKVX NSCLC) of the same compound?
A: Its TGI is 62.1 nM.

Q: And the GI50 (HCT-116 colon)?
A: Its GI50 is less than 10 nM.

Q: What about the TGI (HCT-116 colon) of the same compound?
A: Its TGI is 135 nM.

Q: What about the GI50 (A549 NSCLC) of the same compound?
A: The GI50 was less than 10 nM.

Q: What about the TGI (A549 NSCLC) of the same compound?
A: The TGI was 121 nM.

Q: What about the GI50 (HOP-92 NSCLC) of the same compound?
A: Its GI50 is less than 10 nM.

Q: What about the TGI (HOP-92 NSCLC) of the same compound?
A: Its TGI is 1050 nM.

Q: And the GI50 (SR leukemia)?
A: Its GI50 is less than 10 nM.

Q: What about the TGI (SR leukemia) of the same compound?
A: The TGI was less than 10 nM.

Q: What about the GI50 (SK-OV-3 ovarian) of the same compound?
A: The GI50 was less than 10 nM.

Q: And the TGI (SK-OV-3 ovarian)?
A: Its TGI is 107 nM.

Q: What about the GI50 (OVCAR-5 ovarian) of the same compound?
A: The GI50 was less than 10 nM.

Q: What about the TGI (OVCAR-5 ovarian) of the same compound?
A: The TGI was 226 nM.

Q: What about the GI50 (HT29 colon) of the same compound?
A: The GI50 was less than 10 nM.

Q: What about the TGI (HT29 colon) of the same compound?
A: The TGI was 1090 nM.

Q: And the GI50 (OVCAR-3 ovarian)?
A: Its GI50 is less than 10 nM.

Q: And the TGI (OVCAR-3 ovarian)?
A: Its TGI is less than 10 nM.

Q: And the GI50 (OVCAR-4 ovarian)?
A: Its GI50 is 10.3 nM.

Q: And the TGI (OVCAR-4 ovarian)?
A: Its TGI is 129 nM.

Q: What about the GI50 (NCI-H522 lung) of the same compound?
A: The GI50 was less than 10 nM.

Q: And the TGI (NCI-H522 lung)?
A: The TGI was less than 10 nM.

Q: And the GI50 (SK-MEL-2 melanoma)?
A: Its GI50 is less than 10 nM.

Q: What about the TGI (SK-MEL-2 melanoma) of the same compound?
A: Its TGI is less than 10 nM.

Q: And the GI50 (HS 578T breast)?
A: Its GI50 is less than 10 nM.

Q: What about the TGI (HS 578T breast) of the same compound?
A: The TGI was less than 10 nM.

Q: What about the GI50 (TK-10 renal) of the same compound?
A: Its GI50 is less than 10 nM.

Q: And the TGI (TK-10 renal)?
A: The TGI was 235 nM.

Q: What about the GI50 (MDA-MB-231 breast) of the same compound?
A: The GI50 was less than 10 nM.

Q: What about the TGI (MDA-MB-231 breast) of the same compound?
A: Its TGI is 1350 nM.

Q: What about the GI50 (A498 renal) of the same compound?
A: Its GI50 is less than 10 nM.

Q: What about the TGI (A498 renal) of the same compound?
A: The TGI was 814 nM.

Q: And the GI50 (PC-3 prostate)?
A: Its GI50 is less than 10 nM.

Q: What about the TGI (PC-3 prostate) of the same compound?
A: Its TGI is 2460 nM.

Q: What about the GI50 (COLO 205 colon) of the same compound?
A: Its GI50 is less than 10 nM.

Q: What about the TGI (COLO 205 colon) of the same compound?
A: Its TGI is less than 10 nM.

Q: And the GI50 (OVCAR-8 ovarian)?
A: The GI50 was less than 10 nM.

Q: What about the TGI (OVCAR-8 ovarian) of the same compound?
A: Its TGI is less than 10 nM.

Q: And the GI50 (NCI-H322M lung)?
A: Its GI50 is less than 10 nM.

Q: What about the TGI (NCI-H322M lung) of the same compound?
A: The TGI was 1400 nM.

Q: What about the GI50 (ACHN renal) of the same compound?
A: Its GI50 is 66.1 nM.

Q: What about the TGI (ACHN renal) of the same compound?
A: The TGI was 1560 nM.

Q: What about the GI50 (NCI/ADR-RES ovarian) of the same compound?
A: The GI50 was 196 nM.

Q: What about the TGI (NCI/ADR-RES ovarian) of the same compound?
A: The TGI was 591 nM.

Q: And the GI50 (HCC-2998 colon)?
A: Its GI50 is less than 10 nM.

Q: What about the TGI (HCC-2998 colon) of the same compound?
A: The TGI was less than 10 nM.

Q: And the GI50 (UO-31 renal)?
A: The GI50 was 77.1 nM.

Q: What about the TGI (UO-31 renal) of the same compound?
A: The TGI was 1480 nM.

Q: What about the GI50 (MDA-MB-468 breast) of the same compound?
A: Its GI50 is less than 10 nM.

Q: What about the TGI (MDA-MB-468 breast) of the same compound?
A: The TGI was less than 10 nM.

Q: And the GI50 (BT-549 breast)?
A: The GI50 was less than 10 nM.

Q: What about the TGI (BT-549 breast) of the same compound?
A: Its TGI is less than 10 nM.
